Values quoted from earlier work in paper PMC9804730 (Diabetes, Obesity & Metabolism, 2022).

Assays:
[1] = N- and C-terminal degradation

(D‐Arg^35)‐sea lamprey PYY (1–36) [SL‐PYY]
enzymatic stability [1]: N‐ and C‐terminally enzyme‐resistant | effect on insulin secretion: insulinostatic | effect on blood glucose levels in the acute setting (acute setting): does not affect
